Test results: patent US11292807B2 (OCEANS LTD., priority 2015, dated 2022)
Where “and” joins values, the source holds several entries; their conditions need not be identical. Equal entries are not always repeated. Where two headings read alike, the source gives them in different places.

Legend:
[1] = system: THP-1 (acute monocytic leukemia); experiment: CIMA assay, cell viability, THP-1; details: THP-1
[2] = system: MCF7 (mammary gland adenocarcinoma); experiment: CIMA assay, cell viability, MCF7; type: cell-based, human; details: SDS 5% control
Experimental: (§1) Stock solutions of the extracts were prepared in dimethylsulfoxide (DMSO) at 10 mg/mL and stored in 200 μl aliquots at −20° C. until analysis. This preparation ensured that the DMSO delivered to cells in culture never exceeded 1%.
(§2) Prepared extracts were assessed following chronic exposure conditions in which cells were seeded at 2×10^3 cells/well (96 well-plate) and incubated with test compounds for 72 h. Each compound was evaluated over a range of concentrations (0, 10, 25, 50 or 100 μg/ml). Cell proliferation was initially assessed using a standard colorimetric indicator of metabolic activity (CIMA) assay. In this assay, tetrazole reduction was evaluated as a measure of metabolic function that evaluates mitochondrial activity to determine the extent of cell proliferation within a culture. This assay is based on the reduction of yellow tetrazolium salt to purple formazan by mitochondrial reductases enzyme in viable cells, resulting in a color changed that confers a change in absorbance.

[3] = system: SKOV3 (ovarian adenocarcinoma); experiment: CIMA assay, cell viability, SKOV3; details: SKOV
Experimental: as §1, §2

[4] = system: A549 (lung carcinoma); experiment: CIMA assay (colorimetric indicator of metabolic activity), cell viability, A549; details: A549; for Average cell viability: unit assumed
[5] = system: SKOV3 (ovarian adenocarcinoma)
Experimental: as §1, §2

[6] = system: PC3; experiment: CIMA assay, cell viability, PC3; details: PC3
[7] = system: U373 (glioblastoma-astrocytoma); experiment: CIMA assay, cell viability, U373; details: for Fold change in viability AVG / Average cell viability: U373
[8] = system: MDA-MB; details: MDA-MB
[9] = system: CCD1079SK (fibroblast, noncancerous but proliferating); experiment: CIMA assay, cell viability, CCD1079SK; details: for Fold change in viability AVG / Average cell viability: CCD
[10] = system: PC3

## CCCCCCCCCCCCOS(=O)(=O)[O-].[Na+] [SDS, reference compound]
[1]; SDS 5% control
  AVG (CIMA assay, cell viability): 36.2
  viability (AVG): 20.3
[1]; positive control 250 ug/mL
  Fold change in viability AVG: 0.18
[1]; positive control 250 ug/ml
  Average cell viability: 16%
[1]; positive control SDS 250 ug/mL
  Fold change in viability AVG: 0.18
[1]; positive control SDS 250 ug/ml
  Average cell viability: 16%
[2]
  AVG (CIMA assay, cell viability): 49.9
  viability (AVG): 44.1
[3]; positive control 250 ug/mL
  Fold change in viability AVG: 0.10
[3]; positive control SDS 250 ug/mL
  Fold change in viability AVG: 0.10
[4]; SDS 5% control
  viability (AVG): 68.7
[4]; positive control 250 ug/mL
  Fold change in viability AVG: 0.13
[4]; positive control 250 ug/ml
  Average cell viability: 11%
[4]; positive control SDS 250 ug/mL
  Fold change in viability AVG: 0.13
[4]; positive control SDS 250 ug/ml
  Average cell viability: 11%
[5]
  AVG (CIMA assay, cell viability): 56.5
  viability (AVG): 78.9%
[6]; positive control 250 ug/mL
  Fold change in viability AVG: 0.08
[6]; positive control SDS 250 ug/mL
  Fold change in viability AVG: 0.08
[7]; U373, SDS 5% control
  AVG (CIMA assay, cell viability): 58.1 and 44.1
  viability (AVG): 48.4
[7]; positive control 250 ug/mL
  Fold change in viability AVG: 0.05
[7]; positive control 250 ug/ml
  Average cell viability: 4%
[7]; positive control SDS 250 ug/mL
  Fold change in viability AVG: 0.05
[7]; positive control SDS 250 ug/ml
  Average cell viability: 4%
[8]; positive control 250 ug/mL
  Fold change in viability AVG: 0.16
[8]; positive control SDS 250 ug/mL
  Fold change in viability AVG: 0.16
[9]; CCD1079SK, SDS 5% control
  viability (AVG): 9.4
[9]; CCD10795K, SDS 5% control
  AVG (CIMA assay, cell viability): 11.3
[9]; positive control 250 ug/mL
  Fold change in viability AVG: 0.06
[9]; positive control 250 ug/ml
  Average cell viability: 5%
[9]; positive control SDS 250 ug/mL
  Fold change in viability AVG: 0.06
[9]; positive control SDS 250 ug/ml
  Average cell viability: 5%
[10]
  viability (AVG): 77.3%
